Source: ChEMBL document CHEMBL1157924, “Exploration of secondary and tertiary pharmacophores in unsymmetrical N,N'-diaryl urea inhibitors of soluble epoxide hydrolase” (Bioorg Med Chem Lett, 2010)

Biological target: T1, Bifunctional epoxide hydrolase 2 (Homo sapiens, UniProt P34913)
T1 sequence (P34913 whole entry): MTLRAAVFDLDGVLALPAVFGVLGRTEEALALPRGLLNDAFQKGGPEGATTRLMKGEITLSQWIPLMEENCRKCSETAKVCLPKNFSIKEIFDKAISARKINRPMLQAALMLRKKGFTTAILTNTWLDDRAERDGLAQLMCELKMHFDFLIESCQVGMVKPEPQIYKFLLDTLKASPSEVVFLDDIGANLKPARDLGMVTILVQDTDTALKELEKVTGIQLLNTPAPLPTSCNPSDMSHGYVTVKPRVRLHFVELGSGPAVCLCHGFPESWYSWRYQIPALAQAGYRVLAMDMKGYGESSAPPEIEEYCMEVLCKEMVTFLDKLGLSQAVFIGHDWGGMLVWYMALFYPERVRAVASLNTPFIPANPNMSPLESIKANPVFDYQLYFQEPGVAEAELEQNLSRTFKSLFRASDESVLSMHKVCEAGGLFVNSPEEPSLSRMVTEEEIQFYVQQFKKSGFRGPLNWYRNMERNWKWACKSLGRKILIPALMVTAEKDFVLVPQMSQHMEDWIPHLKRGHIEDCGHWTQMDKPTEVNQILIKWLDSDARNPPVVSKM
Experiment: Inhibition of soluble epoxide hydrolase by fluorescence assay

| SMILES | IC50 [nM] |
| --- | --- |
| O=C(Nc1ccc(F)cc1)Nc1ccc(C(=O)NCCN2CCOCC2)cc1 | 140 |
| O=C(Nc1ccc(Cl)cc1)Nc1ccc(C(=O)NCCN2CCOCC2)cc1 | 16 |
| O=C(Nc1ccc(C(=O)NCCN2CCOCC2)cc1)Nc1ccc(C(F)(F)F)cc1 | 1 |
| O=C(Nc1ccc(OC(F)(F)F)cc1)Nc1ccc(C(=O)NCCN2CCOCC2)cc1 | 2 |
| O=C(Nc1ccccc1)Nc1ccc(C(=O)NCCN2CCOCC2)cc1 | 320 |
| O=C(Nc1ccc(Cl)cc1)Nc1ccc(F)c(C(=O)NCCN2CCCC2)c1 | 760 |
| O=C(Nc1ccc(C(F)(F)F)cc1)Nc1ccc(F)c(C(=O)NCCN2CCOCC2)c1 | 18 |
| O=C(Nc1ccc(OC(F)(F)F)cc1)Nc1ccc(C(=O)N2CCOCC2)cc1 | 4 |
| O=C(O)CNC(=O)c1ccc(NC(=O)NC23CC4CC(CC(C4)C2)C3)cc1 | 490 |
| O=C(Nc1ccccc1)Nc1cccc(S(=O)(=O)CCCN2CCOCC2)c1 | 100 |
| O=C(Nc1ccc(C(F)(F)F)cc1)Nc1cccc(S(=O)(=O)CCCN2CCOCC2)c1 | 1 |
| O=C(Nc1ccc(Cl)cc1)Nc1ccc(C(=O)N2CCC(N3CCOCC3)CC2)cc1 | 235 |
| O=C(Nc1ccccc1)Nc1ccc(C(=O)N2CCOCC2)cc1 | 251 |
| O=C(Nc1ccc(F)cc1)Nc1ccc(C(=O)N2CCOCC2)cc1 | 170 |
| O=C(Nc1ccc(Cl)cc1)Nc1ccc(C(=O)N2CCOCC2)cc1 | 18 |
| O=C(Nc1ccccc1)Nc1ccc(S(=O)(=O)CCCN2CCOCC2)cc1 | 54 |

| SMILES | IC50 [nM] |
| --- | --- |
| CN(CC(=O)O)C(=O)c1cccc(NC(=O)NC23CC4CC(CC(C4)C2)C3)c1 | 230 |
| CC(C)N1CCN(S(=O)(=O)c2cccc(NC(=O)Nc3ccc(C(F)(F)F)cc3)c2)CC1 | 3 |
| CC(C)N1CCN(S(=O)(=O)c2ccc(NC(=O)Nc3ccc(C(F)(F)F)cc3)cc2)CC1 | 5 |
| O=C(Nc1ccc(C(F)(F)F)cc1)Nc1ccc(S(=O)(=O)NCCN2CCOCC2)cc1 | 3 |
| CN(CC(=O)O)C(=O)c1ccc(NC(=O)NC23CC4CC(CC(C4)C2)C3)cc1 | 200 |
| CN1CCN(C(=O)c2ccc(NC(=O)Nc3ccc(OC(F)(F)F)cc3)cc2)CC1 | 7 |
| O=C(Nc1ccc(C(F)(F)F)cc1)Nc1ccc(C(=O)N2CCOCC2)c(F)c1 | 2 |
| O=C(Nc1ccc(C(=O)N2CCNCC2)cc1)NC12CC3CC(CC(C3)C1)C2 | 12 |
| CN1CCN(C(=O)c2ccc(NC(=O)Nc3ccc(C(F)(F)F)cc3)cc2)CC1 | 14 |
| O=C(Nc1ccc(C(=O)NCCN2CCOCC2)cc1)Nc1ccc(C2CCCCC2)cc1 | 19 |
| O=C(Nc1ccc(Cl)cc1)Nc1cccc(C(=O)N2CCOCC2)c1 | 49 |
| CN1CCN(C(=O)c2cccc(NC(=O)Nc3ccc(C(F)(F)F)cc3)c2)CC1 | 12 |
| CN1CCN(C(=O)c2ccc(NC(=O)Nc3ccc(F)cc3)cc2)CC1 | 160 |
| O=C(Nc1cccc(C(=O)NCCN2CCOCC2)c1)NC12CC3CC(CC(C3)C1)C2 | 62 |
| O=C(Nc1ccc(C(F)(F)F)cc1)Nc1cccc(S(=O)(=O)NCCN2CCOCC2)c1 | 1 |
| CN1CCN(C(=O)c2cccc(NC(=O)NC34CC5CC(CC(C5)C3)C4)c2)CC1 | 36 |

Continued, values first:

| IC50 [nM] | SMILES |
| --- | --- |
| 4 | CN1CCN(C(=O)c2ccc(NC(=O)Nc3ccc(C(F)(F)F)cc3)cc2F)CC1 |
| 19 | O=C(Nc1ccc(C(F)(F)F)cc1)Nc1ccc(C(=O)NCCN2CCCC2)c(F)c1 |
| 38 | O=C(Nc1ccc(Cl)cc1)Nc1ccc(F)c(C(=O)NCCN2CCOCC2)c1 |
| 8 | O=C(Nc1ccc(C(=O)Nc2cccnc2)cc1)Nc1ccc(C(F)(F)F)cc1 |
| 8 | O=C(Nc1ccc(C(F)(F)F)cc1)Nc1ccc(F)c(C(=O)N2CCOCC2)c1 |
| 5 | O=C(Nc1ccc(C(=O)N2CCOCC2)cc1)Nc1ccc(C(F)(F)F)cc1 |
| 3 | O=C(Nc1ccc(C(=O)NCC(=O)N2CCOCC2)cc1)Nc1ccc(C(F)(F)F)cc1 |
| 19 | O=C(O)CCCNC(=O)c1ccc(NC(=O)Nc2ccc(C(F)(F)F)cc2)cc1 |
| 80 | O=C(O)COCCNC(=O)c1ccc(NC(=O)NC23CC4CC(CC(C4)C2)C3)cc1 |
| 20 | O=C(Nc1ccc(C(=O)c2ccc(C(=O)O)cc2)cc1)Nc1ccc(C(F)(F)F)cc1 |
| 800 | O=C(O)CNC(=O)c1cccc(NC(=O)NC23CC4CC(CC(C4)C2)C3)c1 |
| 1 | O=C(Nc1ccc(C(F)(F)F)cc1)Nc1ccc(S(=O)(=O)N2CCOCC2)cc1 |
| 1 | O=C(Nc1ccc(C(F)(F)F)cc1)Nc1ccc(S(=O)(=O)CCCN2CCOCC2)cc1 |
| 1 | O=C(Nc1ccc(C(F)(F)F)cc1)Nc1cccc(S(=O)(=O)N2CCOCC2)c1 |
| 2 | O=C(Nc1ccc(C(F)(F)F)cc1)Nc1ccc(C(=O)NCCN2CCOCC2)c(F)c1 |
| 2 | CC(C)N1CCN(C(=O)c2ccc(NC(=O)Nc3ccc(C(F)(F)F)cc3)cc2)CC1 |
| 4 | CC(C)N1CCN(C(=O)c2ccc(NC(=O)Nc3ccc(OC(F)(F)F)cc3)cc2)CC1 |

| IC50 [nM] | SMILES |
| --- | --- |
| 11 | O=C(Nc1ccc(Cl)cc1)Nc1ccc(C(=O)N2CCOCC2)c(F)c1 |
| 120 | O=C(O)CCCNC(=O)c1cccc(NC(=O)Nc2ccc(C(F)(F)F)cc2)c1 |
| 130 | O=C(O)COCCNC(=O)c1cccc(NC(=O)NC23CC4CC(CC(C4)C2)C3)c1 |
| 27 | O=C(Nc1ccc(C(F)(F)F)cc1)Nc1cccc(C(=O)c2ccc(C(=O)O)cc2)c1 |
| 48 | O=C(Nc1ccc(C(=O)NCCN2CCCC2)cc1)Nc1ccc(C(F)(F)F)cc1 |
| 3 | O=C(Nc1ccc(C(=O)NCCN2CCOCC2)cc1)NC12CC3CC(CC(C3)C1)C2 |
| 130 | O=C(Nc1ccc(Cl)cc1)Nc1cccc(C(=O)NCCN2CCOCC2)c1 |
| 22 | O=C(Nc1ccc(C(F)(F)F)cc1)Nc1cccc(C(=O)NCCN2CCOCC2)c1 |
| 18 | O=C(Nc1ccc(C(F)(F)F)cc1)Nc1cccc(C(=O)Nc2cccnc2)c1 |
| 110 | COCCNC(=O)c1cccc(NC(=O)NC23CC4CC(CC(C4)C2)C3)c1 |
| 16 | CN1CCN(C(=O)c2cc(NC(=O)Nc3ccc(C(F)(F)F)cc3)ccc2F)CC1 |
| 47 | O=C(Nc1ccc(Cl)cc1)Nc1cccc(C(=O)N2CCC(N3CCOCC3)CC2)c1 |
| 15 | CC(C)N1CCN(C(=O)c2cccc(NC(=O)Nc3ccc(C(F)(F)F)cc3)c2)CC1 |
| 68 | O=C(Nc1ccc(C(F)(F)F)cc1)Nc1cccc(C(=O)NCCN2CCCC2)c1 |
| 280 | O=C(Nc1ccc(C2CCCCC2)cc1)Nc1cccc(C(=O)NCCN2CCOCC2)c1 |
| 2800 | O=C(Nc1ccccc1)Nc1cccc(C(=O)NCCN2CCOCC2)c1 |
| 54 | COCCNC(=O)c1ccc(NC(=O)NC23CC4CC(CC(C4)C2)C3)cc1 |
